# Results from US7358359B2, “Antibacterial agents” (University of Washington, priority 2003, dated 2008).
# Assays:
# P. aeruginosa LpxC = molecular target: T1, P. aeruginosa LpxC (Pseudomonas aeruginosa, UniProt P47205); assay: P. aeruginosa LpxC Inhibition Assay; type: biochemical; details: 2 nM P. aeruginosa LpxC, 90 min, room temperature; read-out: IC50 (nM), Enzyme inhibitory activity
# T1 sequence (P47205 1-303): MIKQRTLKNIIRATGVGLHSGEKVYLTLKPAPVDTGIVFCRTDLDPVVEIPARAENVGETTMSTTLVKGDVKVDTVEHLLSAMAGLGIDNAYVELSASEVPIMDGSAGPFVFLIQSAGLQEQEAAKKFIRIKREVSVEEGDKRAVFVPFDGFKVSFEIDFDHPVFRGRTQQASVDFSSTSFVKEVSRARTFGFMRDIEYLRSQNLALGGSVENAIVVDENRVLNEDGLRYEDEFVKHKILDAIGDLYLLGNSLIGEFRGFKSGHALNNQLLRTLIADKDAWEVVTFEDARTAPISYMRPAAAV
# Experimental: The assay followed the general method of Hyland et al (Journal of Bacteriology 1997 179, 2029-2037: Cloning, expression and purification of UDP-3-O-acyl-GlcNAc deacetylase from Pseudomonas aeruginosa: a metalloamidase of the lipid A biosynthesis pathway) and the radiolabeling procedure is according to Kline et al. supra. Briefly, samples were incubated with 2 nM P. aeruginosa LpxC and 150 nM [3H-Ac]-UDP-3-OR-3-hydroxydecanoyl)-GlcNAc in a total volume of 50 uL for 90 min at room temperature. Reactions were carried out in 96-well polypropylene plates in 50 mM sodium phosphate buffer, pH 7.5, containing 1 mg/mL BSA. Reactions were stopped by the addition of 180 uL of a 3% suspension of activated charcoal powder in 100 mM sodium acetate, pH 7.5. Supernatants were clarified by centrifugation. A portion of the clarified supernatant, containing the enzymatically released [3H]-acetate, was transferred to opaque white 96-well plates containing scintillation fluid. The radioactivity was measured in a Perkin-Elmer/Wallac Trilux Microbeta counter.
# P. aeruginosa 27853 = assay: MIC broth microdilution, standard panel: P. aeruginosa 27853; type: cell-based; details: Pseudomonas aeruginosa, standard panel of organisms
# Experimental: (§1) Bacterial isolates were cultivated from −70° C. frozen stocks by two consecutive overnight passages at 35° C. in ambient air on 5% blood agar (Remel, Lenexa, Kans.). Clinical isolates tested were from a collection composed of isolates collected during clinical trials and recent clinical isolates obtained from various geographically diverse hospitals in the US. Quality control and primary panel strains were from the American Type Culture Collection (ATCC; Rockville, Md.), with the exception of P. aeruginosa PAO200, a strain with a deletion of the mexABoprM genes that was received from Dr. H. Schweizer. […] Strain Z61 (ATCC 35151) is also hypersusceptible to antibacterials. It is thought that the hypersusceptibility of this strain is the result of increased permeability of its outer membrane (Angus B L et al, Antimicrobial Agents and Chemotherapy 1982 21,299-309: Outer membrane permeability in Pseudomonas aeruginosa: Comparison of a wild-type with an antibacterial-supersusceptible mutant).
# (§2) Minimum Inhibitory Concentrations (MICs) were determined by the broth microdilution method in accordance with the National Committee for Clinical Laboratory Standards (NCCLS) guidelines. In brief, organism suspensions were are adjusted to a 0.5 McFarland standard to yield a final inoculum between 3×10^5 and 7×10^5 colony-forming units (CFU)/mL. Drug dilutions and inocula were made in sterile, cation adjusted Mueller-Hinton Broth (Remel). An inoculum volume of 100 μl was added to wells containing 100 μl of broth with 2-fold serial dilutions of drug. All inoculated microdilution trays were incubated in ambient air at 35° C. for 18-24 hours. Following incubation, the lowest concentration of the drug that prevented visible growth was recorded as the MIC. Performance of the assay was monitored by the use of laboratory quality-control strains against tobramycin, that has a defined MIC spectrum, in accordance with NCCLS guidelines.
# E. coli 25922 = assay: MIC broth microdilution, standard panel: E. coli 25922; type: cell-based; details: Escherichia coli, standard panel of organisms
# Experimental: as §1, §2
# S. aureus 29213 = assay: MIC broth microdilution, standard panel: S. aureus 29213; type: cell-based; details: Staphylococcus aureus, standard panel of organisms
# Experimental: as §1, §2
# [1] = tested on: P. aeruginosa PAO200 mexAB; assay: MIC broth microdilution, standard panel: P. aeruginosa PAO200 mexAB; type: cell-based; details: Pseudomonas aeruginosa, PAO200MEXAB, read-out: MIC P. aeruginosa PAO200 mexAB
# Experimental: as §1, §2
SMILES,melting point,IC50 (P. aeruginosa LpxC),MIC (P. aeruginosa 27853),MIC (E. coli 25922),MIC (S. aureus 29213),MIC [1]
"O=C(NO)[C@H]1[C@H](O)CCN1C(=O)c1ccc(OC(F)(F)F)cc1 [Example 3, (2R,3R)-3-hydroxy-1-{[4-(trifluoromethoxy)phenyl]carbonyl}pyrrolidine-2-carbohydroxamic acid]",64 to 65 °C,–,–,–,–,–
"NC[C@H](NC(=O)c1ccc(C#Cc2ccc(NC(=O)CNc3ccccc3)cc2)cc1)C(=O)NO [Example 572, N-{(1S)-1-(aminomethyl)-2-(hydroxyamino)-2-oxoethyl]-4-[(4-{[(phenylamino)acetyl]amino}phenyl)ethynyl]benzamide]",–,< 100 nM,< 6.25 µg/mL,< 6.25 µg/mL,> 50 µg/mL,< 6.25 µg/mL
"C[C@@H](O)[C@H](NC(=O)c1ccc(C#Cc2ccc(NC(=O)CNc3cnccn3)cc2)cc1)C(=O)NO [Example 860, N-{(1S,2R)-2-hydroxy-1-[(hydroxyamino)carbonyl]propyl}-4-[(4-{[(pyrazin-2-ylamino)acetyl]amino}phenyl)ethynyl]benzamide]",–,< 100 nM,< 6.25 µg/mL,< 6.25 µg/mL,> 50 µg/mL,< 6.25 µg/mL
